These results are taken from patent US20110230493A1, “1-OXA-8-Azaspiro [4,5] Decabe-8-Carboxamide Compounds as FAAH Inhibitors” (Pfizer Inc., priority 2008, published 2011).

In test [1] the test system is Male Sprague-Dawley Rats. The test can be described thus: In vivo Complete Freund's Adjuvant (CFA) efficacy assay, inhibition of allodynia. Also on record: species or system rat; key: (+) indicates the test compound was determined to be efficacious at 3 mpk, oral dosing; (−) indicates the test compound was determined to not be efficacious at 3 mpk, oral dosing. The conditions noted are these: 3 mpk, oral dosing; PWT four hours postdose; p < 0.05 vs vehicle group. The gist of the method: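 Adult male Sprague-Dawley rats weighing 200 g-250 g received an intra-plantar injection of 150 uL Complete Freund's Adjuvant into the left hindpaw to induce inflammation. On day 4 after injection, baseline paw withdrawal threshold was measured with Von Frey hairs using the Dixon Up and Down method. Threshold was measured again at four hours postdose. Treatment groups were compared by ANOVA with Dunnett's two-tailed test.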

The target of test [2] is T1, rat FAAH (Rattus norvegicus, UniProt P97612).
T1 construct: made in house; host or cells: E. coli
T1 sequence (P97612 1-579): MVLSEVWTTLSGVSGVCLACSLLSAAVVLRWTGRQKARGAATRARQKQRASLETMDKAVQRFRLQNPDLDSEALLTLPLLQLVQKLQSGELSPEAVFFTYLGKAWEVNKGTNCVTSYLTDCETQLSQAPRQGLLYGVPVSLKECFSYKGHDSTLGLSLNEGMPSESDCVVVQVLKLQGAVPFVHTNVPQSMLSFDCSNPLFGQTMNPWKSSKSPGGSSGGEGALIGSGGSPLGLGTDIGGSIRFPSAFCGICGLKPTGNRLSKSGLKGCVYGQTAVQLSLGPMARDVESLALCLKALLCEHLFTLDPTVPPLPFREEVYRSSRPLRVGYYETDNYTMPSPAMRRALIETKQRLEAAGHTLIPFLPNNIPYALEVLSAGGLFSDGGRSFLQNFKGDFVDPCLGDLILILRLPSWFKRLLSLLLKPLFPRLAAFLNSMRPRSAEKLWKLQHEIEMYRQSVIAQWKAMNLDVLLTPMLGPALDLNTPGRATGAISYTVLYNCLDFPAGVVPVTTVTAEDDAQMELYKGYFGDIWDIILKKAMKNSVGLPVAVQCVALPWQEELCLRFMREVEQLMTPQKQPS
The test can be described thus: FAAH assay, rat FAAH enzyme inactivation (kinact/Ki). In kind it is biochemical. The conditions noted are these: pH 7.4, in vitro, oleamide 50 μM, 30° C., read-out: rFAAH kinact/Ki. The gist of the method: (§1)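 Oleamide hydrolysis by 1-4 nM purified E. coli-expressed FAAH (substrate 50 μM = Km) coupled to GDH/NADH, pH 7.4 phosphate, 7.5% DMSO and EtOH, 30° C; A340 followed 90 min. kobs from mono-exponential fits; kinact/Ki from kobs-versus-concentration slope, multiplied by two.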

Test [3] addresses T2, human FAAH (Homo sapiens, UniProt O00519).
T2 construct: made in house; host or cells: E. coli
T2 sequence (O00519 1-579): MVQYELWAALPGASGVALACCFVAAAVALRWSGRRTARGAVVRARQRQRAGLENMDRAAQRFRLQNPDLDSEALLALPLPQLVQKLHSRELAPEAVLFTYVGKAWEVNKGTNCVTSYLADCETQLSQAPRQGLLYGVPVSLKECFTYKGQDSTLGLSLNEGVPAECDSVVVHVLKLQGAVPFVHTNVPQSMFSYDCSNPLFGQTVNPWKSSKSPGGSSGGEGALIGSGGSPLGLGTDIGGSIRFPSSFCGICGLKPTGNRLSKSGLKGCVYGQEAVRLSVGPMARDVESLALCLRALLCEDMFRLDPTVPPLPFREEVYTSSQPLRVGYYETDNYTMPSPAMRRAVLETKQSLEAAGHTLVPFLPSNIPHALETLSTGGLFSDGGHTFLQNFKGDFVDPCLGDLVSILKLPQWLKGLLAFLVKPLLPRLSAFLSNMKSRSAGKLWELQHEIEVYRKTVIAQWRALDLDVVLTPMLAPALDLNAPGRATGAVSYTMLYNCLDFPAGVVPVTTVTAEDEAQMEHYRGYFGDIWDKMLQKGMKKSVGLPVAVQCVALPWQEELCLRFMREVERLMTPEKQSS
The test can be described thus: FAAH assay, human FAAH enzyme inactivation (kinact/Ki). The conditions noted are these: pH 7.4, in vitro, oleamide 50 μM, 30° C., read-out: hFAAH kinact/Ki. Format: biochemical. The gist of the method: as §1

Each structure is given as a SMILES string.

Turning to `O=C(Nc1cccnn1)N1CCC2(CC1)C[C@@H](c1cccc(Oc3ccc(Cl)cn3)c1)CO2` [Example 12, (3S)-3-{3-[(5-chloropyridin-2-yl)oxy]phenyl}-N-pyridazin-3-yl-1-oxa-8-azaspiro[4.5]decane-8-carboxamide], the “CFA Efficacy” value in test [1] is on record as “(+)”. Also, the kinact/KI was 2270 M⁻¹ s⁻¹ in test [2] and 2190 M⁻¹ s⁻¹ in test [3].

On to `Cc1noc(NC(=O)N2CCC3(CC2)C[C@H](c2ccc(OCc4ccc(F)cc4)cc2)CO3)c1C` [Example 41, (3R)—N-(3,4-dimethylisoxazol-5-yl)-3-{4-[(4-fluorobenzyl)oxy]phenyl}-1-oxa-8-azaspiro[4.5]decane-8-carboxamide], for which, in test [1], the “CFA Efficacy” value is listed as “(+)”. In addition, the kinact/KI in test [2] came to 15800 M⁻¹ s⁻¹; in test [3], 12500 M⁻¹ s⁻¹.

For the compound `Cc1noc(NC(=O)N2CCC3(CC2)C[C@@H](c2ccc(OCc4ccc(F)cc4)cc2)CO3)c1C` [Example 42, (3S)—N-(3,4-dimethylisoxazol-5-yl)-3-{4-[(4-fluorobenzyl)oxy]phenyl}-1-oxa-8-azaspiro[4.5]decane-8-carboxamide], the “CFA Efficacy” value in test [1] is listed as “(+)”. Also, the kinact/KI in test [2] was 5320 M⁻¹ s⁻¹; in test [3], 5590 M⁻¹ s⁻¹.

With `Cc1noc(NC(=O)N2CCC3(CC2)C[C@H](c2ccc(OCc4cccc(F)c4)cc2)CO3)c1C` [Example 47, (3R)—N-(3,4-dimethylisoxazol-5-yl)-3-{4-[(3-fluorobenzyl)oxy]phenyl}-1-oxa-8-azaspiro[4.5]decane-8-carboxamide], the “CFA Efficacy” value in test [1] is recorded as “(+)”. Besides, the kinact/KI came to 6260 M⁻¹ s⁻¹ in test [2] and 9350 M⁻¹ s⁻¹ in test [3].

As to `Cc1noc(NC(=O)N2CCC3(CC2)C[C@@H](c2ccc(OCc4cccc(F)c4)cc2)CO3)c1C` [Example 48, (3S)—N-(3,4-dimethylisoxazol-5-yl)-3-{4-[(3-fluorobenzyl)oxy]phenyl}-1-oxa-8-azaspiro[4.5]decane-8-carboxamide], the “CFA Efficacy” value in test [1] is recorded as “(+)”. Besides, the kinact/KI in test [2] was determined as 2540 M⁻¹ s⁻¹; in test [3] it was 4470 M⁻¹ s⁻¹.

In the case of `Cc1noc(NC(=O)N2CCC3(CC2)C[C@H](c2ccc(OCc4ccc(Cl)cc4)cc2)CO3)c1C` [Example 49, (3R)-3-{4-[(4-chlorobenzyl)oxy]phenyl}-N-(3,4-dimethylisoxazol-5-yl)-1-oxa-8-azaspiro[4.5]decane-8-carboxamide], the “CFA Efficacy” value in test [1] is on record as “(−)”. Also, the kinact/KI in test [2] amounted to 21900 M⁻¹ s⁻¹; in test [3], 16800 M⁻¹ s⁻¹.

As to `Cc1noc(NC(=O)N2CCC3(CC2)C[C@@H](c2ccc(OCc4ccc(Cl)cc4)cc2)CO3)c1C` [Example 50, (3S)-3-{4-[(4-chlorobenzyl)oxy]phenyl}-N-(3,4-dimethylisoxazol-5-yl)-1-oxa-8-azaspiro[4.5]decane-8-carboxamide], in test [1], the “CFA Efficacy” value is “(−)”. Besides, the kinact/KI amounted to 9110 M⁻¹ s⁻¹ in test [2] and 7470 M⁻¹ s⁻¹ in test [3].

In the case of `Cc1noc(NC(=O)N2CCC3(CC2)C[C@H](c2ccc(OCc4ccc(F)c(F)c4)cc2)CO3)c1C` [Example 51, (3R)-3-{4-[(3,4-difluorobenzyl)oxy]phenyl}-N-(3,4-dimethylisoxazol-5-yl)-1-oxa-8-azaspiro[4.5]decane-8-carboxamide], in test [1], the “CFA Efficacy” value was “(+)”. The kinact/KI came out at 17300 M⁻¹ s⁻¹ in test [2] and 16700 M⁻¹ s⁻¹ in test [3].

As to `Cc1noc(NC(=O)N2CCC3(CC2)C[C@@H](c2ccc(OCc4ccc(F)c(F)c4)cc2)CO3)c1C` [Example 52, (3S)-3-{4-[(3,4-difluorobenzyl)oxy]phenyl}-N-(3,4-dimethylisoxazol-5-yl)-1-oxa-8-azaspiro[4.5]decane-8-carboxamide], the “CFA Efficacy” value in test [1] is on record as “(+)”. The kinact/KI is 6170 M⁻¹ s⁻¹ in test [2] and 10100 M⁻¹ s⁻¹ in test [3].

In the case of `Cc1noc(NC(=O)N2CCC3(CC2)C[C@@H](c2cccc(-c4ccc(F)c(F)c4)c2)CO3)c1C` [Example 57, (3S)-3-(3′,4′-difluorobiphenyl-3-yl)-N-(3,4-dimethylisoxazol-5-yl)-1-oxa-8-azaspiro[4.5]decane-8-carboxamide], in test [1], the “CFA Efficacy” value is “(+)”. The kinact/KI in test [2] was determined as 2110 M⁻¹ s⁻¹; in test [3], 1610 M⁻¹ s⁻¹.

Turning to `Cc1noc(NC(=O)N2CCC3(CC2)C[C@H](c2cccc(-c4ccc(F)cc4)c2)CO3)c1C` [Example 59, (3R)—N-(3,4-dimethylisoxazol-5-yl)-3-(4′-fluorobiphenyl-3-yl)-1-oxa-8-azaspiro[4.5]decane-8-carboxamide], the “CFA Efficacy” value in test [1] is “(+)”. In addition, the kinact/KI in test [2] came to 879 M⁻¹ s⁻¹; in test [3] it was 3130 M⁻¹ s⁻¹.

Take `Cc1noc(NC(=O)N2CCC3(CC2)C[C@@H](c2cccc(-c4ccc(F)cc4)c2)CO3)c1C` [Example 60, (3S)—N-(3,4-dimethylisoxazol-5-yl)-3-(4′-fluorobiphenyl-3-yl)-1-oxa-8-azaspiro[4.5]decane-8-carboxamide]: in test [1], the “CFA Efficacy” value was “(+)”. Moreover, the kinact/KI was found to be 2750 M⁻¹ s⁻¹ in test [2] and 2110 M⁻¹ s⁻¹ in test [3].

Consider `Cc1noc(NC(=O)N2CCC3(CC2)C[C@H](c2cccc(-c4ccc(Cl)cc4)c2)CO3)c1C` [Example 61, (3R)-3-(4′-chlorobiphenyl-3-yl)-N-(3,4-dimethylisoxazol-5-yl)-1-oxa-8-azaspiro[4.5]decane-8-carboxamide], for which the “CFA Efficacy” value in test [1] is recorded as “(+)”. Moreover, the kinact/KI was determined as 433 M⁻¹ s⁻¹ in test [2] and 1220 M⁻¹ s⁻¹ in test [3].

For the compound `Cc1noc(NC(=O)N2CCC3(CC2)C[C@@H](c2cccc(-c4ccc(Cl)cc4)c2)CO3)c1C` [Example 62, (3S)-3-(4′-chlorobiphenyl-3-yl)-N-(3,4-dimethylisoxazol-5-yl)-1-oxa-8-azaspiro[4.5]decane-8-carboxamide], the “CFA Efficacy” value in test [1] is “(+)”. Besides, the kinact/KI worked out at 2260 M⁻¹ s⁻¹ in test [2] and 2920 M⁻¹ s⁻¹ in test [3].

Take `Cc1noc(NC(=O)N2CCC3(CC2)C[C@@H](c2cccc(-c4ccc(OC(F)(F)F)cc4)c2)CO3)c1C` [Example 63, (3S)—N-(3,4-dimethylisoxazol-5-yl)-3-[4′-(trifluoromethoxy)biphenyl-3-yl]-1-oxa-8-azaspiro[4.5]decane-8-carboxamide]: the “CFA Efficacy” value in test [1] was “(+)”. For the same compound, the kinact/KI in test [2] turned out to be 2160 M⁻¹ s⁻¹; in test [3], 2350 M⁻¹ s⁻¹.

On to `Cn1nnnc1NC(=O)N1CCC2(CC1)C[C@H](c1cccc(Oc3ccc(Cl)cn3)c1)CO2` [Example 81, 3-{3-[(5-chloropyridin-2-yl)oxy]phenyl}-N-(1-methyl-1H-tetrazol-5-yl)-1-oxa-8-azaspiro[4.5]decane-8-carboxamide], for which, in test [1], the “CFA Efficacy” value was “(+)”. The kinact/KI in test [2] stood at 11200 M⁻¹ s⁻¹; in test [3], 4890 M⁻¹ s⁻¹.

With `Cn1nnnc1NC(=O)N1CCC2(CC1)C[C@@H](c1ccc(OCc3cccc(F)c3)cc1)CO2` [Example 87, (3S)-3-{4-[(3-fluorobenzyl)oxy]phenyl}-N-(1-methyl-1H-tetrazol-5-yl)-1-oxa-8-azaspiro[4.5]decane-8-carboxamide], in test [1], the “CFA Efficacy” value is “(+)”. Besides, the kinact/KI in test [2] was 4110 M⁻¹ s⁻¹; in test [3], 15900 M⁻¹ s⁻¹.

In the case of `Cn1nnnc1NC(=O)N1CCC2(CC1)C[C@H](c1ccc(OCc3ccc(F)c(F)c3)cc1)CO2` [Example 88, (3R)-3-{4-[(3,4-difluorobenzyl)oxy]phenyl}-N-(1-methyl-1H-tetrazol-5-yl)-1-oxa-8-azaspiro[4.5]decane-8-carboxamide], in test [1], the “CFA Efficacy” value was “(+)”. Also, the kinact/KI is 25000 M⁻¹ s⁻¹ in test [2] and 32600 M⁻¹ s⁻¹ in test [3].
